“And” between values parts separate entries of the source, which are not always exact repeats. Equal values may be shown once. Read-outs that look alike come from different tables or passages of the source.
Target: T1, PLCδ-PH (PH domain of rat PLC-δ1) (Rattus norvegicus, UniProt P10688)
T1 construct: initiator methionine (N); made in house; host or cells: Escherichia coli (pET11a, T7 system)
T1 sequence (P10688 20-136): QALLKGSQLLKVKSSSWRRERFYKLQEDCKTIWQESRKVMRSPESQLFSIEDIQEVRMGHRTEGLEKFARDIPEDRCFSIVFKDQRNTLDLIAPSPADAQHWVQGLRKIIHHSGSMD
Test: Isothermal titration calorimetry of inositol polyphosphate / PIP2 vesicle binding to PLCδ-PH
Conditions: for Kd: read-out: KD
Protocol: The resulting titration curve was fit using Omega software (Wiseman et al., 1989).
All experiments utilized the OMEGA instrument from MicroCal (Wiseman, T. et al., Anal. Biochem. 179, 131-137, 1989), in the laboratory of Prof. Julian Sturtevant at Yale. Titrations were performed at 25° C. in 50 mM MOPS, 100 mM NaCl, pH 6.8 or 100 mM NH4OAc at pH 6.8. […] For each titration, PH domain solution was dialyzed exhaustively against the buffer used for dilution of highly concentrated stocks of ligand. Heats for dilution of the ligand solutions were determined in separate titrations of ligand into buffer solution present in the cell.
Higher concentrations were employed for weaker binding events. […] Stoichiometry, binding constant (Kβ) and ΔH were all allowed to float in the fitting procedure.
A titration curve such as that to an equation describing a simple-binding reaction (Wiseman, T. et al., Anal. Biochem. 179, 131-137, 1989). From this fit, values for the binding constant, stoichiometry and ΔH for the binding reaction are ascertained. […] Ferris, C. D. et al, Nature, 342, 87-89, 1989.

[1] = ITC, PIP2 at 5% in DMPC vesicles

With “Phosphatidylinositol-(4,5)-bisphosphate [PIP2]” the “PIP2 in the vesicle preparation available for PLCδ-PH binding (apparent stoichiometry)” value [1] was 57%, the Kd [1] was 1000 nM and 950 nM and the “binding affinity in words” value (PIP2 in vesicles) was “submicromolar affinities”. The ΔG (individual titrations, 25° C) was -8.22 kcal/M and -7.74 kcal/M, the ΔH (individual titrations, 25° C) was -13.6 ± 0.4 kcal/M and -17.4 ± 0.4 kcal/M and the ΔS (individual titrations, 25° C) was −18.1 cal · M^−1 · K^−1 and −32.4 cal · M^−1 · K^−1. The Stoichiometry n (individual titrations, 25° C, pH 6.8, quoted for IPn as the ligand, PIP2 in vesicles assuming 50% available) was 0.88 ± 0.02 and 0.87 ± 0.02 and the Kd (individual titrations, 25° C, pH 6.8) was 950 nM and 2120 nM.
